One block for each compound: values may come before it.
Legend:
PIK3CA (human) [1] = target: PIK3CA (human) (UniProt P42336); assay: Antiproliferation of NZB5 Cell Line Using Thymidine Depletion Assay
PIK3CA (human) [2] = target: PIK3CA (human) (UniProt P42336); assay: Antiproliferation of NZOV9 Cell Line Using Thymidine Depletion Assay
MAPK14 (human) [3] = target: MAPK14 (human) (UniProt Q16539); assay: Inhibition of IL-beta Production in LPS Stimulated Whole Blood; details: blood cells
MAPK14 (human) [4] = target: MAPK14 (human) (UniProt Q16539); assay: Inhibition of TNF-alpha Production in LPS Stimulated Whole Blood; details: blood cells
EGFR (human) [5] = target: EGFR (human) (UniProt P00533)
EGFR [6] = target: EGFR (UniProt P00533)
EGFR (human) [7] = target: EGFR (human) (UniProt P00533); remark: listed apart in the source
EGFR (human) [8] = target: EGFR (human) (UniProt P00533); details: concentration not given here
EGFR [9] = target: EGFR (UniProt P00533); remark: listed apart in the source
ROCK2 = ROCK2 (UniProt O75116); assay: ROCK2 Kinase Inhibition; details: concentration not given here
CDK2 = CDK2 (UniProt P24941); assay: Enzyme Assay; details: concentration not given here
MAPK14 [10] = target: MAPK14 (UniProt Q16539); assay: p38-alpha Kinase Inhibition; details: concentration not given here
MAPK14 [11] = target: MAPK14 (UniProt Q16539); assay: p38 MAP kinase Inhibition Assay
[12] = target: PIK3CB;PIK3CG;PIK3CD;PIK3CA (human) (UniProt P48736); assay: Antiproliferation of Anti-IgM stimulated Human B Cells by PI3K Inhibitors
PIK3CA (bovine) = PIK3CA (bovine) (UniProt P32871); assay: Inhibition of PIK3CA Kinase Activity
EGFR (human) [13] = target: EGFR (human) (UniProt P00533); details: a431
EGFR (human) [14] = target: EGFR (human) (UniProt P00533); details: a431; remark: listed apart in the source
EGFR (murine) = EGFR (murine) (UniProt P00533); details: nih3t3
EGFR (Balb/c mice) = EGFR (Balb/c mice) (UniProt P00533)
EGFR (human) [15] = target: EGFR (human) (UniProt P00533); details: a431; remark: listed apart in the source
EGFR (human) [16] = target: EGFR (human) (UniProt P00533); remark: listed apart in the source
EGFR [17] = target: EGFR (UniProt P00533); remark: listed apart in the source
EGFR (human) [18] = target: EGFR (human) (UniProt P00533); remark: listed apart in the source
MAPK14 (human) [19] = target: MAPK14 (human) (UniProt Q16539); assay: Inhibition of MAPK14 Kinase Activity
EGFR (human) [20] = target: EGFR (human) (UniProt P00533); details: concentration not given here; remark: listed apart in the source
EGFR (human) [21] = target: EGFR (human) (UniProt P00533); remark: listed apart in the source
EGFR (human) [22] = target: EGFR (human) (UniProt P00533); details: kb
PIK3CB (Human) = PIK3CB (Human) (UniProt P42338); assay: Inhibition of PIK3CB Kinase (ATP Loss) Activity
EGFR [23] = target: EGFR (UniProt P00533); details: concentration not given here

Sequence of PIK3CA (human) (P42336 whole entry, looked up): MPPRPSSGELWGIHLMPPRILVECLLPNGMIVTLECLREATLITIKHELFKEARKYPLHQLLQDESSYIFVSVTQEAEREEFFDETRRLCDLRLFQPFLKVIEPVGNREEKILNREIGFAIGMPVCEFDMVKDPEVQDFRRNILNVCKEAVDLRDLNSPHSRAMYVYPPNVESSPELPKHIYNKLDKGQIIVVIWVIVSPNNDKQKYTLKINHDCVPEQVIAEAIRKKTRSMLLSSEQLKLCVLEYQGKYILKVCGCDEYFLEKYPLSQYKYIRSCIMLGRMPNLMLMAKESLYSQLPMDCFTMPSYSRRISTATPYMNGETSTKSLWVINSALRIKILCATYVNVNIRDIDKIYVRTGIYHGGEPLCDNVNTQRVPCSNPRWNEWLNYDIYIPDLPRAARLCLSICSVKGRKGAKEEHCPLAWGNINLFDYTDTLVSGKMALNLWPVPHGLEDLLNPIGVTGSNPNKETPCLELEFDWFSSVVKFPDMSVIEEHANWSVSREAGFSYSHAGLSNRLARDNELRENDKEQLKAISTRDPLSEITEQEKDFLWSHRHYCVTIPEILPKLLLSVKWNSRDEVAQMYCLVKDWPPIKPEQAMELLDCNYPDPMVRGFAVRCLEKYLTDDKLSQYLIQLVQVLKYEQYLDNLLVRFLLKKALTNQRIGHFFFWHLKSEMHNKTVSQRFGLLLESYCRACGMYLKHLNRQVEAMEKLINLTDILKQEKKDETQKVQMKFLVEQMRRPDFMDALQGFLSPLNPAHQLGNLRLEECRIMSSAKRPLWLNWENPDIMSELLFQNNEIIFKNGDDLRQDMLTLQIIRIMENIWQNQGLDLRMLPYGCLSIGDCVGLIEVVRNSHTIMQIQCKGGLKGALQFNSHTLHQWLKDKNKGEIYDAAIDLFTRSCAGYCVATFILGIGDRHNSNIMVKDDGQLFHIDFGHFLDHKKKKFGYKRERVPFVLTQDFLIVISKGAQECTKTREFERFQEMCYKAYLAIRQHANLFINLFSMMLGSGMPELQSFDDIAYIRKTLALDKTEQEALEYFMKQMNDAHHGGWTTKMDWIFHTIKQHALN
Sequence of EGFR (human) (P00533 whole entry, looked up): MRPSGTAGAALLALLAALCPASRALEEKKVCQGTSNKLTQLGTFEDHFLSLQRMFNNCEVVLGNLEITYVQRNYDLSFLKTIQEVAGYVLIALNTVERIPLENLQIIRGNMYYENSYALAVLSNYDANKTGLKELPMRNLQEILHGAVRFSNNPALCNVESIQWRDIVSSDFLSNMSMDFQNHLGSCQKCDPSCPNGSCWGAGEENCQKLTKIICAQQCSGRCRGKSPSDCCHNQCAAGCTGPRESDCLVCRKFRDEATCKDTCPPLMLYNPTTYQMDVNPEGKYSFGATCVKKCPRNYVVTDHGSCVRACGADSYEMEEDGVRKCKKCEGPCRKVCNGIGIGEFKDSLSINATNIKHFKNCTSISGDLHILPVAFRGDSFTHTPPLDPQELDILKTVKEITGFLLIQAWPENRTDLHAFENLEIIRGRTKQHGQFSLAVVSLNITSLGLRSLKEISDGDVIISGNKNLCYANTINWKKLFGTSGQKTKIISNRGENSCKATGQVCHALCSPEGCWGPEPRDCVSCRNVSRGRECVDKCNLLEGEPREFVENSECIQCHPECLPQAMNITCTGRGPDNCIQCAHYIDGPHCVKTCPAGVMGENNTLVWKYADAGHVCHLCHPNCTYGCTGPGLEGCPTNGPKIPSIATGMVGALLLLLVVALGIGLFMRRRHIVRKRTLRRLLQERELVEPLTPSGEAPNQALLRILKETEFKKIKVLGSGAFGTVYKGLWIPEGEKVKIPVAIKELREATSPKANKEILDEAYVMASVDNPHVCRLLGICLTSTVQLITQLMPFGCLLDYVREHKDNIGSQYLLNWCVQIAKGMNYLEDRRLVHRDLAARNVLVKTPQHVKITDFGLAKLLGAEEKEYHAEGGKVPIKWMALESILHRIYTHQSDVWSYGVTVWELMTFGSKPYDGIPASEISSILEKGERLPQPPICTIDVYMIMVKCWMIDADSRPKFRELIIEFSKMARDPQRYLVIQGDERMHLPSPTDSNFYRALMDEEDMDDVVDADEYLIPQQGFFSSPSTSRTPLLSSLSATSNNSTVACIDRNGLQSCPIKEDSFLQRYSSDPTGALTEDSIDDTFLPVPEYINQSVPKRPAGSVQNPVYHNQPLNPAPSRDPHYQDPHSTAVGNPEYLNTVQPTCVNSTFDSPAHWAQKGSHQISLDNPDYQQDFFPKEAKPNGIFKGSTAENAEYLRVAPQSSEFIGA
Sequence of EGFR (P00533 whole entry, looked up): as above
Sequence of MAPK14 (Q16539 whole entry, looked up): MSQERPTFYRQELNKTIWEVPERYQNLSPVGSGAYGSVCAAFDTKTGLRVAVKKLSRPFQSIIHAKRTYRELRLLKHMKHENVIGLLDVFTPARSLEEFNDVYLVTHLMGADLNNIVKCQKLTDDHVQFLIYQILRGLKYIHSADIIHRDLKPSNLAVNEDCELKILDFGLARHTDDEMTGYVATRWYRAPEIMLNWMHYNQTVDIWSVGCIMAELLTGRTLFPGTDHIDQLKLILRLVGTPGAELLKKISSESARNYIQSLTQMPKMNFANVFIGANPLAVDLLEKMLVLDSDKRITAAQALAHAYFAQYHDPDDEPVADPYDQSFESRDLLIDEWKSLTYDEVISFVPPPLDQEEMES
Sequence of MAPK14 (human) (Q16539 whole entry, looked up): as above
Sequence of PIK3CB (Human) (P42338 whole entry, looked up): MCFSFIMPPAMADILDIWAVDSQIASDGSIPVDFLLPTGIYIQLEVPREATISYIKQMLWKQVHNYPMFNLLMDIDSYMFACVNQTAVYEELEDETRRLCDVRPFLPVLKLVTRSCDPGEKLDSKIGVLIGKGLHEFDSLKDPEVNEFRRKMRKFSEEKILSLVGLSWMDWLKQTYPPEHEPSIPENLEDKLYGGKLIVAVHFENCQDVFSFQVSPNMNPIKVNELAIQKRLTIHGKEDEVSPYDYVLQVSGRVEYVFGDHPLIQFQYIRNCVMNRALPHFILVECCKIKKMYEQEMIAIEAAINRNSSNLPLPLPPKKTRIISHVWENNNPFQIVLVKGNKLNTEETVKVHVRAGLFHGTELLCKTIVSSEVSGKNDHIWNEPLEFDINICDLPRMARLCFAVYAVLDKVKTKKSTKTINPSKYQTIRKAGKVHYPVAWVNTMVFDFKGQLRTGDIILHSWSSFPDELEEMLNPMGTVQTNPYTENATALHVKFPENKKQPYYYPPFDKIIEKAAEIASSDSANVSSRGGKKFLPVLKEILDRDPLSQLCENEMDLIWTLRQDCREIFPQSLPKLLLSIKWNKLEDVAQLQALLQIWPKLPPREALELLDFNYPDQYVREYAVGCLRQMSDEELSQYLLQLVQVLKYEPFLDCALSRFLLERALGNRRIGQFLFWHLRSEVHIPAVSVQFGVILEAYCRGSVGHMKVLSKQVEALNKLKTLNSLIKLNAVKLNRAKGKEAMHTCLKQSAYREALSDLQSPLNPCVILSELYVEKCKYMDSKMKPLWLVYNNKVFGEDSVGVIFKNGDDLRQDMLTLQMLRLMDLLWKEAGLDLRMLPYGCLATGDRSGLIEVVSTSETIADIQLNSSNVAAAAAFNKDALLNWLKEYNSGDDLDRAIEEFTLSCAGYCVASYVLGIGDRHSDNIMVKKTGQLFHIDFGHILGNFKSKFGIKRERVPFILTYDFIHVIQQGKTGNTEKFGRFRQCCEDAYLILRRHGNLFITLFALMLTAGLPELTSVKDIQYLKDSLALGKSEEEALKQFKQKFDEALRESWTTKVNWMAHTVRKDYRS
Sequence of PIK3CA (bovine) (P32871 whole entry, looked up): as the sequence (P42336 whole entry, looked up) above, with K532R, S535C counted along it

Structure (SMILES): Cc1ccc([N+](=O)[O-])cc1S(=O)(=O)N(C)N=Cc1cccc2ccccc12
- IC50 (PIK3CA (human) [1]): > 20 µM
- IC50 (PIK3CA (human) [2]): > 20 µM

Structure (SMILES): O=C1Nc2ccccc2C1=Cc1ccc(O)cc1O
- IC50 (EGFR [9]): < 3.9 µM

Structure (SMILES): CN1CCCC1CCn1cc(C2=C(c3c[nH]c4ccccc34)C(=O)NC2=O)c2ccccc21 (configuration not stated)
- activity (ROCK2): 82%
- activity (CDK2): 25%
- activity (MAPK14 [10]): 86%

Structure (SMILES): Cc1ccc(S(=O)(=O)n2cc(/C=C/c3cccnc3)c3ccccc32)cc1
- IC50 (MAPK14 [11]): 1000 µM

Structure (SMILES): Cc1ccc([N+](=O)[O-])cc1S(=O)(=O)N(C)N=Cc1cncn1C
- IC50 (PIK3CA (human) [1]): > 20 µM
- IC50 (PIK3CA (human) [2]): > 20 µM

Structure (SMILES): Cc1cccnc1-c1nc2c(Cl)cccc2cc1CNc1ncnc2[nH]cnc12
- IC50 [12]: 0.079 µM

Structure (SMILES): COc1cccc(-c2nc(N3CCOCC3)c3oc4ncccc4c3n2)c1
- IC50 (PIK3CA (bovine)): 0.1 µM

Structure (SMILES): COc1cc2ncnc(Nc3cccc(Cl)c3)c2cc1OC
- GI50 (EGFR (human) [14]): 0.302 µM
- IC50 (EGFR (murine)): < 0.015 µM
- LD50 (EGFR (Balb/c mice)): > 200 mg/kg

Structure (SMILES): COc1ccc(C=C2C(=O)Nc3ccccc32)cc1F
- IC50 (EGFR [9]): 3.7 to 37 µM

Structure (SMILES): N#C/C(=C\c1ccc(O)c(O)c1)C(=O)O
- Ki (EGFR (human) [15]): 23.6 µM

Structure (SMILES): CCNC(=O)Nc1nc2nc(NCCCN3CCN(C)CC3)ncc2cc1-c1cc(OC)cc(OC)c1
- IC50 (EGFR [17]): > 50 µM

Structure (SMILES): CN(C)c1ccc(C=C2C(=O)Nc3ccccc32)c2ccccc12
- IC50 (EGFR [9]): 3.2 to 32 µM

Structure (SMILES): O=C(CO)N1CCC(c2[nH]nc(-c3ccc(Cl)cc3)c2-c2ccncc2)CC1
- IC50 (EGFR (human) [18]): < 1 µM
- IC50 (MAPK14 (human) [19]): 0.111 µM

Structure (SMILES): Cc1ccc([N+](=O)[O-])cc1S(=O)(=O)N(C)N=Cc1csc2ccccc12
- IC50 (PIK3CA (human) [1]): > 20 µM
- IC50 (PIK3CA (human) [2]): > 20 µM

Structure (SMILES): C=C=CCCCOc1cc2c(Nc3ccc(F)c(Cl)c3)ncnc2cc1OC
- GI50 (EGFR (human) [14]): 0.268 µM

Structure (SMILES): c1cncc(CCc2c[nH]c3ccccc23)c1
- IC50 (MAPK14 [11]): 1000 µM

Second part, led by results:

- IC50 (MAPK14 (human) [3]): > 10 µM
- IC50 (MAPK14 (human) [4]): > 10 µM
Structure (SMILES): CSc1nc(-c2ccc(F)cc2)c(-c2ccnc(NC(C)=O)c2)n1CCN1CCOCC1

- IC50 (EGFR (human) [5]): 10.1 µM
Structure (SMILES): CCN(c1ccc(N2CCOCC2)cc1)c1ncnc2nc(Nc3ccc(S(N)(=O)=O)cc3)sc12

- IC50 (EGFR [6]): 0.007 µM
Structure (SMILES): CNc1ccc2ncnc(Nc3cccc(Br)c3)c2c1

- IC50 (EGFR (human) [7]): 0.049 µM
Structure (SMILES): COc1ccc(NN=Cc2c(N)ncnc2Nc2ccc3c(cnn3Cc3cccc(F)c3)c2)cc1

- inhibition (EGFR (human) [8]): -13%
Structure (SMILES): COCCOc1cc2ncnc(NC3=CC(=O)C(OCc4cccc(OC)c4)=CC3=O)c2cc1OC

- IC50 (EGFR (human) [13]): 4.5 µM
Structure (SMILES): COc1ccc(OC)c(Cc2cc3c(Nc4cccc(Br)c4)ncnc3[nH]2)c1

- inhibition (EGFR (human) [8]): -30%
Structure (SMILES): COCCOc1cc2ncnc(NC3=CC(=O)C(OCc4ccccc4)=CC3=O)c2cc1OC

- IC50 (EGFR (human) [16]): 0.00445 µM
Structure (SMILES): C=C=CCCCCCOc1cc2c(Nc3ccc(F)c(Cl)c3)ncnc2cc1OC
- GI50 (EGFR (human) [14]): 0.586 µM

- IC50 (EGFR (human) [7]): 0.0529 µM
Structure (SMILES): Nc1ncnc(Nc2ccc3c(cnn3Cc3cccc(F)c3)c2)c1C=NNCC(F)(F)F

- inhibition (EGFR (human) [20]): < 50%
Structure (SMILES): CCc1nc2c(NC(C)(C)C)nc(Nc3ccc4ncsc4c3)nc2[nH]1

- IC50 (EGFR (human) [21]): ≤ 0.1 µM
Structure (SMILES): COc1cc2ncnc(Nc3ccc4occc4c3)c2cc1OCCCCCCC(=O)NO

- IC50 (EGFR (human) [22]): 0.061 µM
Structure (SMILES): CNC(=O)[C@@H]1C[C@@H](Oc2cc3c(Nc4cccc(Cl)c4F)ncnc3cc2OC)CCN1C

- IC50 (EGFR (human) [5]): 3.3 µM
Structure (SMILES): CN(c1ccc(N2CCOCC2)cc1)c1ncnc2nc(Nc3ccc(S(N)(=O)=O)cc3)sc12

- IC50 (MAPK14 (human) [3]): > 100 µM
- IC50 (MAPK14 (human) [4]): > 100 µM
Structure (SMILES): CSc1nc(-c2ccc(F)cc2)c(-c2ccnc(NC(C)=O)c2)n1CCOCCO

- IC50 (EGFR (human) [5]): 0.0109 µM
Structure (SMILES): OC[C@@H]1CCCN1Cc1ccc(Nc2nc3ncnc(Nc4ccc(F)c(Cl)c4)c3s2)cc1

- IC50 (PIK3CB (Human)): 40 µM
Structure (SMILES): O=S(=O)(Nc1cc(-c2ccc3cnccc3c2)cnc1Cl)c1ccc(F)cc1

- inhibition (EGFR [23]): 74%
Structure (SMILES): c1ccc(Cn2ccc3cc(Nc4ncnc5ccccc45)ccc32)cc1

- inhibition (EGFR (human) [8]): -27%
Structure (SMILES): COCCOc1cc2ncnc(NC3=CC(=O)C(OCc4cccc(F)c4)=CC3=O)c2cc1OC

- IC50 (MAPK14 (human) [3]): > 10 µM
- IC50 (MAPK14 (human) [4]): > 10 µM
Structure (SMILES): CSc1nc(-c2ccc(F)cc2)c(-c2ccnc(NC(C)=O)c2)n1CCN1CCCCC1

— the Kinase Knowledgebase extract (Sharma et al. 2016)
